Holding throughout (type): biochemical
The target in assay [1] is T1, LRRK2 WT (Homo sapiens, UniProt Q5S007). Description: In vitro kinase assay: LRRK2-mediated MBP phosphorylation. The note with it: for IC50: mean of three experiments; for MBP phosphorylation Average ± SEM: compound 16 μM, 30° C., 15 min, normalized to absence of compound, mean ± S.E.M. of three experiments; for effect on LRRK2-mediated phosphorylation of MBP: screen at 16 μM.

In assay [2] the target is T1, LRRK2 WT. Description: In vitro kinase assay: LRRK2 autophosphorylation. As to conditions: for IC50: mean of three experiments; for LRRK2 autophosphorylation Average ± SEM: compound 16 μM, phosphorylation normalized to absence of compound, mean ± S.E.M. of three experiments; for effect on LRRK2 autophosphorylation: screen at 16 μM.
The target in assay [3] is T2, LRRK2 G2019S (Homo sapiens, UniProt Q5S007, G2019S). Description: In vitro kinase assay: G2019S LRRK2-mediated MBP phosphorylation. As to conditions: mean of three experiments. As to the method:
(§1) Transfection was performed by using Fugene HD reagent (Roche Applied Science) according to the manufacturer's instruction. For purification of recombinant LRRK1 and LRRK2 proteins, ACTA Purifier (GE Healthcare) FPLC system was used.
(§2) Resulting lysates were rotated at 4° C. for 30 min followed by centrifugation at 20,000×g for 15 min. The supernatants were injected into a GSTrap FF column pre-equilibrated with PBS at 0.5. mL/min flow after filtration using a 0.2 μm syringe filter (Corning). The bound proteins were eluted with buffer containing 10 mM GSH (Sigma), 150 mM NaCl, and 50 mM Tris-HCl (pH 8.0).
(§3) The in vitro kinase assay was performed as previously described. […] Recombinant LRRK2 and MBP or CST-4E-BP1 were combined before the kinase reaction. LRRK2 autophosphorylation is LRRK2 itself phosphorylation and MBP or GST-4E-BP1 phosphorylation is induced by LRRK2. After the kinase reaction, combined LRRK2 and MBP or GST-4E-BP1 were loaded on SDSPAGE and phosphorylated LRRK2 and MBP or GST-4E-BP1 could be detected separately an a single gel. Recombinant proteins and inhibitors were incubated at 30° C. in kinase assay buffer containing 20 mM Hepes (pH 7.4), 5 mM EGTA, and 20 mM β-glycerol phosphate. 0.5 μg MBP (Upstate) or 0.5 μg GST-4B-BP1, 50 μM ATP (Sigma), 20 mM MgCl2, and 1 μCi [γ-32P] ATP (PerkinElmer) was added after 5 min. The reaction was performed at 30° C. to reduce non-specific 32P incorporation for 15 min and terminated by the addition of 5×Laemmili sample buffer. […] Gels were stained by coomassie brilliant blue after fixation with 10% acetic acid and 40% methanol and then exposed to a Phosphoimager. Data were analyzed by ImageQuant 6.0 software.
(§4) To calculate the IC50 value, a dose-response curve was constructed and non-linear regression analysis using the equation for a sigmoid plot.

Assay [4] addresses T2, LRRK2 G2019S. Description: In vitro kinase assay: G2019S LRRK2 autophosphorylation. As to conditions: mean of three experiments. As to the method: as §1, §2, §3, §4
Assay [5] deals with T3, LRRK1 WT (Homo sapiens, UniProt Q38SD2). Description: In vitro kinase assay: LRRK1 autophosphorylation.
T3 sequence (Q38SD2 whole entry): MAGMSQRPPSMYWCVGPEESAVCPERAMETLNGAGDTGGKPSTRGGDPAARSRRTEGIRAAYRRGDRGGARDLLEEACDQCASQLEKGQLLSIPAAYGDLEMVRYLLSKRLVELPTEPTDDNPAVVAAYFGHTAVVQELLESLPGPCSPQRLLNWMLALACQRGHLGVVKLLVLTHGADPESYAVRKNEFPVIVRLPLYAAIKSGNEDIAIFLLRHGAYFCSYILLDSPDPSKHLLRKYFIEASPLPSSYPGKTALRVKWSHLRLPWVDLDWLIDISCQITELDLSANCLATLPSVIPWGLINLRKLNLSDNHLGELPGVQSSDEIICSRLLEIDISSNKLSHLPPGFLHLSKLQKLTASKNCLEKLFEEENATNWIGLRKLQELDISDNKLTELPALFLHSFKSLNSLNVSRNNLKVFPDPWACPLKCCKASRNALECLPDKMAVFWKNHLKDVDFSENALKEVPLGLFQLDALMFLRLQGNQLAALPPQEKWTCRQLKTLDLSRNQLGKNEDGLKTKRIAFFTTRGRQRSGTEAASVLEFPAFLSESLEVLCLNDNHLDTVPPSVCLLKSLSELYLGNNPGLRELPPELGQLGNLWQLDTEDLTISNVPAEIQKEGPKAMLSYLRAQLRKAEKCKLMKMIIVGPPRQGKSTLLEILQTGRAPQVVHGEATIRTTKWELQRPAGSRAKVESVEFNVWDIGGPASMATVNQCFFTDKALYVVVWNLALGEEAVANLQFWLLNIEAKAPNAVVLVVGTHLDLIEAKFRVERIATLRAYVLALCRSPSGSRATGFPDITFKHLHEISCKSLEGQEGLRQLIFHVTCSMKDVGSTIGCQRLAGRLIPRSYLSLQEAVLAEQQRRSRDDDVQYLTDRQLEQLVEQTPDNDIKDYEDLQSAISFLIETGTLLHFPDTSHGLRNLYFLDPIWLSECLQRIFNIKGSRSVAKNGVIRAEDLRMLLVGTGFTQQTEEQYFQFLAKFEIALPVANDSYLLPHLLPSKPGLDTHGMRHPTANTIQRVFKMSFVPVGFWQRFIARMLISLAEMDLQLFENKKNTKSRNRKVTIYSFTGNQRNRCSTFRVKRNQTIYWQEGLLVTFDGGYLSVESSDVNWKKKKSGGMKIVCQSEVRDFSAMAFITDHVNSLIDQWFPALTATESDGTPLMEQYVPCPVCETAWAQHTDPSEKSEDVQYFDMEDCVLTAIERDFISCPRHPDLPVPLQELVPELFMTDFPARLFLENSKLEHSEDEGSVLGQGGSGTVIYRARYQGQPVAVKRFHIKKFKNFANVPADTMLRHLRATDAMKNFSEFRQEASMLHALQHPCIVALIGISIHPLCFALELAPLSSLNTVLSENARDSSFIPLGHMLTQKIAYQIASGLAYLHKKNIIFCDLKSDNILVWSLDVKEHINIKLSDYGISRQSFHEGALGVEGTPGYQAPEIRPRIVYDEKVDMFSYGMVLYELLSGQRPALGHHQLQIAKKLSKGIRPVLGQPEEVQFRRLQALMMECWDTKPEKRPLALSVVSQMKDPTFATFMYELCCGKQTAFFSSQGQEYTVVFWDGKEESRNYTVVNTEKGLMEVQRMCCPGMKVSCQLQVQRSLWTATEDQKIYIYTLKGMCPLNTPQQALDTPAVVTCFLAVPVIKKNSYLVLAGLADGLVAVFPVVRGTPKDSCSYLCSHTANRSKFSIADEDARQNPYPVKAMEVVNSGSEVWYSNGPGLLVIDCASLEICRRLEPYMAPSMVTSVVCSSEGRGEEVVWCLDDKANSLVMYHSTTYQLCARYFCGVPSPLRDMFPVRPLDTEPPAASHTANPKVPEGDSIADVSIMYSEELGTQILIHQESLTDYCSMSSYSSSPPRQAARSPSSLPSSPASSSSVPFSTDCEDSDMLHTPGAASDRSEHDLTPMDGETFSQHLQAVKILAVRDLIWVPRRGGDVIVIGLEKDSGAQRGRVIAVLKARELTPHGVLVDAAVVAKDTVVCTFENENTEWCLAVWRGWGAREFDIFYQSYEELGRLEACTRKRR
Assay [6] deals with T3, LRRK1 WT. Description: In vitro kinase assay: LRRK1-mediated MBP phosphorylation.

T1 sequence (Q5S007 whole entry): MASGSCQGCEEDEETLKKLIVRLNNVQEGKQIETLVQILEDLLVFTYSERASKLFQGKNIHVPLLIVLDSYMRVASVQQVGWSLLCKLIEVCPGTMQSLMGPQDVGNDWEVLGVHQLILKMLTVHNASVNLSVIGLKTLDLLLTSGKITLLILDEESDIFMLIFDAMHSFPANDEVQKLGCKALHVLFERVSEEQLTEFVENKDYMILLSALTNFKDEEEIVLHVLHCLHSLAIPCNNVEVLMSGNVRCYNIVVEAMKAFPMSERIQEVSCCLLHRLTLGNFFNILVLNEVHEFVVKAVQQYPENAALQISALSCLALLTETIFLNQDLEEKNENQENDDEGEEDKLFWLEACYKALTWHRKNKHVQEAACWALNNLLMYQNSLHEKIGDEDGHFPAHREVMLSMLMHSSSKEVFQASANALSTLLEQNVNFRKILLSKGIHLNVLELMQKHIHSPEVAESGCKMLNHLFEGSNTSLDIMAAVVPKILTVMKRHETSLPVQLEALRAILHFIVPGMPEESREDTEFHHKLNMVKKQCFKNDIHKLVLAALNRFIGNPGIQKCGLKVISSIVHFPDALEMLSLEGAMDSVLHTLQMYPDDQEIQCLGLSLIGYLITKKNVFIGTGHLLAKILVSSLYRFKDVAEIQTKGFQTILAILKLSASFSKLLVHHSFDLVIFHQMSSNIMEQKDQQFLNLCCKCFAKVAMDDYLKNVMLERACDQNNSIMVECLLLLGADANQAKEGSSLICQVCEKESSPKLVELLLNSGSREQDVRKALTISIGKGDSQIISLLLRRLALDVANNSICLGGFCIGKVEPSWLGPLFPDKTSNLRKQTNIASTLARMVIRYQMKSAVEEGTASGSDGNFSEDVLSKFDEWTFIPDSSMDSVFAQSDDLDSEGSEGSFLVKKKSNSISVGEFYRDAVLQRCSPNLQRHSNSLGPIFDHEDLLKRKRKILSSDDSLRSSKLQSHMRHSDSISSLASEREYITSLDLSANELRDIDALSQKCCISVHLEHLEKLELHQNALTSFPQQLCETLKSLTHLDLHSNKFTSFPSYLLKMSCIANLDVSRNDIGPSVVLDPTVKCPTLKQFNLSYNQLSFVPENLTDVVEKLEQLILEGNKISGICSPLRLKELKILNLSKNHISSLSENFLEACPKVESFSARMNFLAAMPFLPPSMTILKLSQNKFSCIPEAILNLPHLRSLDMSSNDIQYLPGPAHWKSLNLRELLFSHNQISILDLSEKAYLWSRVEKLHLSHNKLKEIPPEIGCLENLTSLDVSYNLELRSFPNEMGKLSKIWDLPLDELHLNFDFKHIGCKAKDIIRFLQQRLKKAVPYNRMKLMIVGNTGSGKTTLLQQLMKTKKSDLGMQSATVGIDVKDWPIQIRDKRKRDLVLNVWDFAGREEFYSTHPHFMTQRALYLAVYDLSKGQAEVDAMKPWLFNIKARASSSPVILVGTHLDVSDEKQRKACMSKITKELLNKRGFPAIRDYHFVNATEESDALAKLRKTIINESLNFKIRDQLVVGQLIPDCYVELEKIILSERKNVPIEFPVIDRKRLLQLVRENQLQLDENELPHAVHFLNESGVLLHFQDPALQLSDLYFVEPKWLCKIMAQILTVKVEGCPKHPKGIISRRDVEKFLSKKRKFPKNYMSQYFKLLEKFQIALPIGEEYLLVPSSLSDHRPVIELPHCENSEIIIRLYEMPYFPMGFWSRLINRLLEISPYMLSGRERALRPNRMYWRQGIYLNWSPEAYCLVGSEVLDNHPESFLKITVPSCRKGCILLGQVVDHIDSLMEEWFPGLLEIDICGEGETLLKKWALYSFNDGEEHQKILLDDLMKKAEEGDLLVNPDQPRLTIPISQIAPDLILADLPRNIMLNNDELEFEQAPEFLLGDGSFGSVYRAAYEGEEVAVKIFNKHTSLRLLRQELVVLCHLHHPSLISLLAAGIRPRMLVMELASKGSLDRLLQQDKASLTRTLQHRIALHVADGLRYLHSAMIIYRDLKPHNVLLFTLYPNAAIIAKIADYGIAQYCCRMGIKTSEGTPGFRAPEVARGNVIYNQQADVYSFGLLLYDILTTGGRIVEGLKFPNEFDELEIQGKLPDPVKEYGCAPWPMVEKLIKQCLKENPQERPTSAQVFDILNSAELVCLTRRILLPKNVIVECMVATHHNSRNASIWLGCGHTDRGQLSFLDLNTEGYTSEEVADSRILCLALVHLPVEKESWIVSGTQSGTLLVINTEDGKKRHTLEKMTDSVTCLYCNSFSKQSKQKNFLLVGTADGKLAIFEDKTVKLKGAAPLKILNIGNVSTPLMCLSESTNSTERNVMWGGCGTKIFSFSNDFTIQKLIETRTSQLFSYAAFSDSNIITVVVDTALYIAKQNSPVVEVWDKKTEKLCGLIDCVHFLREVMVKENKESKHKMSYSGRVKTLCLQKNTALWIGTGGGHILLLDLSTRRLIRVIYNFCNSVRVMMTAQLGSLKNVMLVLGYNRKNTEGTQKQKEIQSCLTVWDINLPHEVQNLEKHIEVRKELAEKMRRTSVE
T2 sequence (Q5S007 whole entry G2019S): as the sequence (Q5S007 whole entry) above, with G2019S counted along it

Regarding `COc1c(C=O)c(O)cc2c1C(=O)c1ccccc1C2=O` [Inhibitor 22, Damnacanthal, reference compound], the IC50 was 7.81 µM against LRRK2 WT [1] (Table 2), 19.1 µM on LRRK2 WT [2] (Table 2), 9.45 µM against LRRK2 G2019S [3] (Table 2) and 5.25 µM against LRRK2 G2019S [4] (Table 2). The “MBP phosphorylation Average ± SEM” value at LRRK2 WT [1] is recorded as 35.7 ± 10.3 % of control. Besides, the “effect on LRRK2-mediated phosphorylation of MBP” value (“effect … of MBP” below) on LRRK2 WT [1] is on record as “substantially inhibited”. In addition, the “LRRK2 autophosphorylation Average ± SEM” value on LRRK2 WT [2] was 34.7 ± 6.2 % of control. For the same compound, the “effect on LRRK2 autophosphorylation” value on LRRK2 WT [2] is recorded as “substantially inhibited”.

Take `CN(C)CCCn1cc(C2=C(c3c[nH]c4ccccc34)C(=O)NC2=O)c2ccccc21` [Inhibitor 31, GP109203X, reference compound]: the half-maximal inhibitory concentration (IC50) against LRRK2 WT [1] (Table 2) was found to be 2.19 µM; at LRRK2 WT [2] (Table 2), 5.27 µM; against LRRK2 G2019S [3] (Table 2), 2.62 µM; against LRRK2 G2019S [4] (Table 2), 17 µM. Besides, the “MBP phosphorylation Average ± SEM” value at LRRK2 WT [1] was 13.0 ± 8.2 % of control. The “effect … of MBP” value at LRRK2 WT [1] was “substantially inhibited”. Further, the “LRRK2 autophosphorylation Average ± SEM” value at LRRK2 WT [2] is on record as 16.1 ± 8.8 % of control. Also, the “effect on LRRK2 autophosphorylation” value at LRRK2 WT [2] was “substantially inhibited”.

For the compound `Cn1cc(C2=C(c3cn(CCCSC(=N)N)c4ccccc34)C(=O)NC2=O)c2ccccc21` [Inhibitor 33, Ro31-8220, reference compound], the IC50 against LRRK2 WT [1] (Table 2) was found to be 0.05 µM; against LRRK2 WT [2] (Table 2), 1.64 µM; on LRRK2 G2019S [3] (Table 2), 5.16 µM; against LRRK2 G2019S [4] (Table 2) it was 4.51 µM. Also, the “MBP phosphorylation Average ± SEM” value on LRRK2 WT [1] is recorded as 26.0 ± 38.5 % of control. Moreover, the “effect … of MBP” value at LRRK2 WT [1] is reported as “substantially inhibited”. Further, at LRRK2 WT [2], the “LRRK2 autophosphorylation Average ± SEM” value was 5.4 ± 3.0 % of control. In addition, the “effect on LRRK2 autophosphorylation” value on LRRK2 WT [2] is reported as “substantially inhibited”.

Turning to `COc1ccc(S(=O)(=O)N(CCO)c2ccccc2CN(C)C/C=C/c2ccc(Cl)cc2)cc1` [Inhibitor 41, KN-93], at LRRK1 WT [5], the “effect on LRRK1 autophosphorylation” value is “no effect”. At LRRK1 WT [6], the “effect on LRRK1 MBP phosphorylation” value is “no effect”. The “effect … of MBP” value on LRRK2 WT [1] is given as “no effect”.

Take `Nc1ncnc2c1c(I)cn2[C@@H]1O[C@H](CO)[C@@H](O)[C@H]1O` [Inhibitor 49, 5-iodo-tubercidin, reference compound]: the half-inhibitory concentration (IC50) stood at 14.8 µM on LRRK2 WT [1] (Table 2), 3.21 µM against LRRK2 WT [2] (Table 2), 3.41 µM against LRRK2 G2019S [3] (Table 2) and 4.23 µM against LRRK2 G2019S [4] (Table 2). Also, at LRRK2 WT [1], the “MBP phosphorylation Average ± SEM” value was 39.3 ± 9.9 % of control. Also, the “effect … of MBP” value on LRRK2 WT [1] is on record as “substantially inhibited”. For the same compound, the “LRRK2 autophosphorylation Average ± SEM” value on LRRK2 WT [2] was 29.4 ± 14.7 % of control. The “effect on LRRK2 autophosphorylation” value on LRRK2 WT [2] is “substantially inhibited”.

Take `O=C1c2ccccc2-c2n[nH]c3cccc1c23` [Inhibitor 68, SP600125, reference compound]: the IC50 against LRRK2 WT [1] (Table 2) came out at 3.1 µM; at LRRK2 WT [2] (Table 2), 3.71 µM; against LRRK2 G2019S [3] (Table 2), 5 µM; against LRRK2 G2019S [4] (Table 2), 3.37 µM. The “MBP phosphorylation Average ± SEM” value at LRRK2 WT [1] is reported as 31.2 ± 12.1 % of control. Also, the “effect … of MBP” value on LRRK2 WT [1] was “substantially inhibited”. The “LRRK2 autophosphorylation Average ± SEM” value at LRRK2 WT [2] is given as 18.3 ± 22.8 % of control. Moreover, on LRRK2 WT [2], the “effect on LRRK2 autophosphorylation” value was “substantially inhibited”.

On to Raf inhibitor IV, for which the “effect on LRRK1 autophosphorylation” value at LRRK1 WT [5] was “minimal to no effect”. Also, the “effect on LRRK1 MBP phosphorylation” value on LRRK1 WT [6] is on record as “minimal to no effect”. Also, the 50% inhibitory concentration (IC50) at LRRK1 WT [6] (Table 3, mean of three experiments) worked out at 21.5 µM; on LRRK2 WT [1] (Table 3), 3.61 µM; on LRRK2 WT [2] (Table 3), 5.43 µM; against LRRK2 G2019S [3] (Table 3) it was 6.51 µM; at LRRK2 G2019S [4] (Table 3), 3.94 µM. Besides, on LRRK2 WT [2] (LRRK2 versus LRRK1 kinase activity), the “selectivity for LRRK2 kinase activity” value is “relatively selective”.

As usually defined, the IC50 is the concentration that gives 50% inhibition. Read a low IC50 as greater potency in that assay.
